Consider 9 compounds from patent US20250197374A1, “WEE1 DEGRADING COMPOUNDS AND USES THEREOF” (BRISTOL-MYERS SQUIBB COMPANY, priority 2023, published 2025).

Format in all cases: cell-based
One experiment relates to MDA-MB-231 cells. The experiment in a line: MDA-MB-231 cell proliferation assay (Cell-Titer-Glo, 120 hr). Conditions: for EC50: read-out: MDA-MB 231 Cell Prolif. 120 hr EC50; for MDA-MB 231 Cell Prolif. 120 hr YMin (%): minimal percent of DMSO control observed. From the text:
(§1) MKN45 cells were obtained from Celgene internal cell banks and cultured in RPMI complete media (RPMI-1640, 1× Penicillin/Streptomycin, 1× glutamine, 1× Sodium Pyruvate, Non-essential Amino Acids, 10% Fetal Bovine serum, all component from Thermo-Fisher). MDA-MB-231 cells were obtained from the ATCC (HTB-26) and cultured in RPMI-1640 and 10% Fetal Bovine serum; MDA-MB-231 cells were expanded and stored as aliquots in liquid nitrogen in Celgene internal cell banks. Compounds were dispensed into 384-well plates using an HP DE300 compound printer in triplicate with 8 compounds on each plate. Compounds were dispensed into 384-well black clear bottom plates (Corning #3764BC) using an EDC acoustic dispenser at BMS. For each compound, a 10-point dose response was printed at half-log dilutions starting at either 1 uM or 10 uM in triplicate for MKN45 cells and in duplicate for MDA-MB-231 cells. The DMSO concentration was kept constant for a final assay concentration of 0.1% per well assuming 50 ul final media volume. Compound plates were sealed and frozen at −20 C until use.
(§2) For each assay batch, compound plates were thawed and allowed to reach room temperature, and cells were seeded at 400 MKN45 cells per well, or 800 MDA-MB-231 cells per well, in 50 ul media listed above for each cell line. After 120 hours of incubation at 37 C and 5% CO2, cells were lysed by addition of 25 μL of Cell-Titer-Glo Reagent (Promega Corporation, Madison, WI), as per manufacturer's instructions, protected from light, shaken for 45 minutes, and total luminescence read by a Perkin Elmer Envision plate reader. Total luminescence signal is linearly correlated with cell number remaining in the well.
(§3) Luminescence data was processed per plate by subtracting reagent-only “blank” well luminescence from all measured values and calculating a percent of DMSO control value for each treatment well. Then, to determine the half-maximal effective concentration (EC50) values for cell growth inhibition, a four parameter logistic model was fit to the data for each DMSO-normalized compound: Sigmoidal Dose-Response Model: (FIT=(A+((B−A)/1+((C/x)^D)))) where C is the inflection point ([…]), D is the Hill slope, and A and B are the low and high limits of the fit respectively. The lower limit of the fit (value A) is referred to as Ymin-calculated. The minimal percent of DMSO control that is observed in the concentrations tested for each compound is labeled as “Ymin-obs”, and was recorded and reported in the tables. Sigmoidal fit curves were processed and evaluated using Activity Base (IDBS, Alameda, CA) or using Dotmatics (Boston, MA). N/A=not available at the present time.

A further experiment relates to MKN45 cells. The experiment in a line: MKN45 cell proliferation assay (Cell-Titer-Glo, 120 hr). Conditions: for MKN45 Cell Prolif. 120 hr YMin (%): minimal percent of DMSO control observed; for EC50: read-out: MKN45 Cell Prolif. 120 hr EC50.
Text: as §1, §2, §3

Another experiment deals with T1, WEE1 (Homo sapiens, UniProt P30291+Q96SW2).
T1 construct: C-terminal ePL-tagged (DiscoverX, Fremont, CA) full-length WEE1 expression construct; expressed in transfected cells; host or cells: LentiX-HEK293T (Invitrogen), lentivirally transduced; the cells also over-express GSPT1-GN
T1 sequence (P30291 whole entry): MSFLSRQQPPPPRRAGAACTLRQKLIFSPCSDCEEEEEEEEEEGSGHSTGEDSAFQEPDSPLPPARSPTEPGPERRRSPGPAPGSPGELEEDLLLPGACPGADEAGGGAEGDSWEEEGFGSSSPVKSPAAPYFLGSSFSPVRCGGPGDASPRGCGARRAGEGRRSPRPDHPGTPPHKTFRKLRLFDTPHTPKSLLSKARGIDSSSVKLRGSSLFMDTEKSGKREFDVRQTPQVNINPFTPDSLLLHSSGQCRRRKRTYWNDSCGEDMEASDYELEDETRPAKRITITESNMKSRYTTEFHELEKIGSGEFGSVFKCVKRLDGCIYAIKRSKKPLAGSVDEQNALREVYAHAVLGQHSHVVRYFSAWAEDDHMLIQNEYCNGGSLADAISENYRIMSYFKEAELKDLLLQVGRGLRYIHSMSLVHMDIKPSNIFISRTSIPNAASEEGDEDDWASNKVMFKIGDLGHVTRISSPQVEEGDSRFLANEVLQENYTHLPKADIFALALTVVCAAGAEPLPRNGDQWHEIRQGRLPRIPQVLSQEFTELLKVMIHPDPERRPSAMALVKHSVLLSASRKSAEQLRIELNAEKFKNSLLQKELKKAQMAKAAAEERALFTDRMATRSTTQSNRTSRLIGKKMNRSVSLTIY
T1 sequence (Q96SW2 whole entry): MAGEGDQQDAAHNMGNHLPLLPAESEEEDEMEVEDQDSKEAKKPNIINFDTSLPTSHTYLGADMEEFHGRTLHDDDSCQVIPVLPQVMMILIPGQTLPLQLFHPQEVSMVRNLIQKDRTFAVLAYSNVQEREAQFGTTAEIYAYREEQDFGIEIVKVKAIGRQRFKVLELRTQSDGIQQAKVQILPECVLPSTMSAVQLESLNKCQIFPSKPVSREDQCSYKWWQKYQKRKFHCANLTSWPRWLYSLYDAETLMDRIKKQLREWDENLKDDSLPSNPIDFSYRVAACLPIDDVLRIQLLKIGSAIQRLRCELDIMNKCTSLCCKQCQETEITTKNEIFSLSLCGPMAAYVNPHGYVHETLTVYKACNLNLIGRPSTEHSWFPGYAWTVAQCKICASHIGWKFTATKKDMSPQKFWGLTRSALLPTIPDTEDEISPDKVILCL
T1 sequence (Q16531 whole entry partner): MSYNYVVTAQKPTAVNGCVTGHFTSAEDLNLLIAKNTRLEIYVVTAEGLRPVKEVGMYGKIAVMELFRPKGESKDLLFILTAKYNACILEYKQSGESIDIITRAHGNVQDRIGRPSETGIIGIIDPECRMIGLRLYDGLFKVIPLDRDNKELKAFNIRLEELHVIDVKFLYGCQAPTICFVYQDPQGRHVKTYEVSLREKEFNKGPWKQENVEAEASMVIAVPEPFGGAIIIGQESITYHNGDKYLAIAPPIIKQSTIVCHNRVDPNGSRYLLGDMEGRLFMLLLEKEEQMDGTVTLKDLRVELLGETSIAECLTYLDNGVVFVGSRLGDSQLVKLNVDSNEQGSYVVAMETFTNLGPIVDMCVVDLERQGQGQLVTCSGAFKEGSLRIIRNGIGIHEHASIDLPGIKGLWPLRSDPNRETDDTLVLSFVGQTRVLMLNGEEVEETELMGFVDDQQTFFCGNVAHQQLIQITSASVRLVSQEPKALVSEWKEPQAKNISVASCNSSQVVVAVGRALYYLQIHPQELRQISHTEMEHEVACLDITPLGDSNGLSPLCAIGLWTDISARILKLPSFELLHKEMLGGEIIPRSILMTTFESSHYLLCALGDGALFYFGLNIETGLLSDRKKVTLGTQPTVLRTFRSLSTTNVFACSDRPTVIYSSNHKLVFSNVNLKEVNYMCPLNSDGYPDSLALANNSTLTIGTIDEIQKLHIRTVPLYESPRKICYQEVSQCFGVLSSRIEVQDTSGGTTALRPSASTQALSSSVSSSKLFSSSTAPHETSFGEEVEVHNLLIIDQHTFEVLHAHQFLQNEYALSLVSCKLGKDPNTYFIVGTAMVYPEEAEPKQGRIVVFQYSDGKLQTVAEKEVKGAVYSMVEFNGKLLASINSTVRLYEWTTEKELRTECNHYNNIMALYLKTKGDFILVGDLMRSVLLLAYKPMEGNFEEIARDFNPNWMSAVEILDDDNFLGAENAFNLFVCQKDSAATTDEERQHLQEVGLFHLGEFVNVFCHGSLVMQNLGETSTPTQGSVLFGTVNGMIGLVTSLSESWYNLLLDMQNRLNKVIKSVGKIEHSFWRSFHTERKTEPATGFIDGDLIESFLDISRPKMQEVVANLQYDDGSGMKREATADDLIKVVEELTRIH
Nature of the experiment: WEE1-ePL degradation assay (293T-LentiX, InCELL Hunter luminescence, 4 hr). The note with it: for 293T-LentiX WEE1-ePL Degradation 4 hr YMin (%): lower limit of fit, % of DMSO control signal remaining; for DC50: LentiX-HEK293T cells expressing WEE1-ePL, 4 hr incubation, read-out: 293T-LentiX WEE1-ePL Degradation 4 hr EC50. From the text: To generate LentiX-WEE1-ePL-GSPT1-ND cells for the WEE1 degradation assay, LentiX-HEK293T (Invitrogen) were tranduced by lentivirus with a C-terminal ePL-tagged (DiscoverX, Fremont, CA) full-length WEE1 expression construct. A separate lentiviral construct was introduced to over-express a mutated form of GSPT1 (NP_002085), termed GSPT1-GN, which contains a G575N mutation and is further truncated in the first 158 amino acids. GSPT1-GN is functional but not degradable by Cereblon. Cells were selected and maintained in complete DMEM media (DMEM, 10% Heat Inactivated FBS, 400 μg/mL Geneticin, and 1 μg/mL puromycin at 37 C and 5% CO2). Cells were passaged every 3-4 days by reseeding 1×10^6 cells in a T150 flask.
Cells were dispensed into 384-well white plates (Corning #3570, NY) that were pre-spotted with compounds using an acoustic dispenser (Echo acoustic transfer system, Beckman Coulter Life Sciences, Carlsbad, CA) as a 10-point dose-response curve with a 3-fold dilution starting at either 1 uM or 10 uM and including a DMSO control. Twenty-five microliters of media containing 2500 cells for LentiX-oeWEE1-ePL was dispensed per well. Assay plates were incubated at 37° C. with 5% CO2 for four hours (WEE1) After incubation, 25 μL of the InCELL Hunter™ Detection Reagent Working Solution (DiscoverX, Fremont, CA) was added to each well and incubated at room temperature for 30 minutes protected from light. After 30 minutes, luminescence was read on a PHERAstar luminometer (Cary, NC).
To determine the half-maximal effective concentration (EC50) values for WEE1-ePL degradation, a four parameter logistic model was used: (Sigmoidal Dose-Response Model) (FIT=(A+((B−A)/1+((C/x)^D)))) where C is the inflection point (EC50), D is the Hill slope, and A and B are the low and high limits of the fit respectively). The lower limit of the fit (value A) is referred to as Ymin. […] The maximum limit constraint, Ymax, is similarly derived using DMSO control. The curves were processed and evaluated using Activity Base (IDBS, Alameda, CA) or using Dotmatics (Boston, MA).

Where [1] appears, read: Homo sapiens, MDA-MB-231, 120 h.

SMILES strings stand for the structures. Where two headings read alike, the source gives them in different places.

As a reminder, the EC50 is the concentration that produces a half-maximal response. Take `COC[C@@H]1CN(Cc2cc(F)c3nc(C4CCC(O)CC4)ccc3c2)C[C@H]1Oc1ccc2c(c1)CN([C@H]1CCC(=O)NC1=O)C2=O` (relative stereo) [Example 54, rel-(S)-3-(5-(((3S,4S)-1-((8-fluoro-2-(4-hydroxycyclohexyl)quinolin-6-yl)methyl)-4-(methoxymethyl)pyrrolidin-3-yl)oxy)-1-oxoisoindolin-2-yl)piperidine-2,6-dione]: the EC50 with MDA-MB-231 cells (setting [1]) stood at 9 nM. The “MDA-MB 231 Cell Prolif. 120 hr YMin (%)” value in the experiment on MDA-MB-231 cells worked out at 48.9%. Moreover, in the experiment with MKN45 cells, the “MKN45 Cell Prolif. 120 hr YMin (%)” value is on record as 10.5%. Besides, the “293T-LentiX WEE1-ePL Degradation 4 hr YMin (%)” value on WEE1 is 31.2%.
With `COC[C@@H]1CN(Cc2cc(F)c3nc(N4CCN(C(C)=O)C5(COC5)C4)ncc3c2)C[C@H]1Oc1ccc2c(c1)CN([C@H]1CCC(=O)NC1=O)C2=O` [Example 86, (S)-3-(5-(((3S,4S)-1-((2-(5-acetyl-2-oxa-5,8-diazaspiro[3.5]nonan-8-yl)-8-fluoroquinazolin-6-yl)methyl)-4-(methoxymethyl)pyrrolidin-3-yl)oxy)-1-oxoisoindolin-2-yl)piperidine-2,6-dione], in the experiment with MDA-MB-231 cells (setting [1]), the concentration for a half-maximal effect (EC50) was determined as 51 nM. Moreover, the “MDA-MB 231 Cell Prolif. 120 hr YMin (%)” value in the experiment with MDA-MB-231 cells came to 18.4%. The EC50 with MKN45 cells (Homo sapiens, MKN-45, 120 h) amounted to 2 nM. The “MKN45 Cell Prolif. 120 hr YMin (%)” value with MKN45 cells came out at 16.9%. Besides, at WEE1, the DC50 was 3 nM and the “293T-LentiX WEE1-ePL Degradation 4 hr YMin (%)” value was found to be 28.5%.
With `COC[C@@H]1CN(Cc2cc(F)c3nc(C4CCN(CC(F)(F)F)C4)ccc3c2)C[C@H]1Oc1ccc2c(c1)CN([C@H]1CCC(=O)NC1=O)C2=O` (relative stereo) [Example 68, rel-(3S)-3-(5-(((3S,4S)-1-((8-fluoro-2-(1-(2,2,2-trifluoroethyl)pyrrolidin-3-yl)quinolin-6-yl)methyl)-4-(methoxymethyl)pyrrolidin-3-yl)oxy)-1-oxoisoindolin-2-yl)piperidine-2,6-dione], the EC50 came out at 14 nM in the experiment with MDA-MB-231 cells (setting [1]) and 1 nM in the experiment with MKN45 cells (Homo sapiens, MKN-45, 120 h). Further, in the experiment with MDA-MB-231 cells, the “MDA-MB 231 Cell Prolif. 120 hr YMin (%)” value is on record as 17.4%. In addition, the “MKN45 Cell Prolif. 120 hr YMin (%)” value with MKN45 cells is reported as 8.9%. Besides, the DC50 at WEE1 amounted to 2 nM. The “293T-LentiX WEE1-ePL Degradation 4 hr YMin (%)” value at WEE1 worked out at 26.4%.
With `O=C1CC[C@H](N2Cc3cc(O[C@H]4CN(Cc5cc(F)c6nc(C7CCOCC7)ccc6c5)C[C@@H]4c4ccncc4)ccc3C2=O)C(=O)N1` (relative stereo) [Example 149, ((S)-3-(5-(((3R*,4S*)-1-((8-fluoro-2-(tetrahydro-2H-pyran-4-yl)quinolin-6-yl)methyl)-4-(pyridin-4-yl)pyrrolidin-3-yl)oxy)-1-oxoisoindolin-2-yl)piperidine-2,6-dione], the half-maximal effective concentration (EC50) with MDA-MB-231 cells (setting [1]) was 429 nM; in the experiment with MKN45 cells (Homo sapiens, MKN-45, 120 h), 23 nM. The “MDA-MB 231 Cell Prolif. 120 hr YMin (%)” value in the experiment with MDA-MB-231 cells stood at 68.7%. For the same compound, the “MKN45 Cell Prolif. 120 hr YMin (%)” value in the experiment with MKN45 cells was found to be 11.0%. Besides, at WEE1, the DC50 came out at 7 nM. In addition, the “293T-LentiX WEE1-ePL Degradation 4 hr YMin (%)” value on WEE1 was 24.4%.
Consider `O=C1CCC(N2C(=O)c3ccc(O[C@H]4CCN(Cc5ccc6nc(N7CCOCC7)ncc6c5)C4)cc3C2=O)C(=O)N1` (single isomer, unassigned) [Example 12, 2-((S*)-2,6-dioxopiperidin-3-yl)-5-(((S)-1-((2-morpholino-quinazolin-6-yl)methyl)pyrrolidin-3-yl)oxy)isoindoline-1,3-dione], for which the 50% effective concentration (EC50) in the experiment with MDA-MB-231 cells (setting [1]) was 2720 nM; in the experiment on MKN45 cells (Homo sapiens, MKN-45, 120 h), 337 nM. In addition, the “MDA-MB 231 Cell Prolif. 120 hr YMin (%)” value with MDA-MB-231 cells is 79.6%. Further, in the experiment on MKN45 cells, the “MKN45 Cell Prolif. 120 hr YMin (%)” value was 40.6%.
Regarding `COC[C@@H]1CN(Cc2cc(F)c3nc(C45CCC(C(C)(C)O)(CC4)CC5)ccc3c2)C[C@H]1Oc1ccc2c(c1)CN([C@H]1CCC(=O)NC1=O)C2=O` [Example 119, (S)-3-(5-(((3S,4S)-1-((8-fluoro-2-(4-(2-hydroxypropan-2-yl)bicyclo[2.2.2]octan-1-yl)quinolin-6-yl)methyl)-4-(methoxymethyl)pyrrolidin-3-yl)oxy)-1-oxoisoindolin-2-yl)piperidine-2,6-dione], the half-maximal effective concentration (EC50) in the experiment with MDA-MB-231 cells (setting [1]) was found to be 67 nM. In the experiment with MDA-MB-231 cells, the “MDA-MB 231 Cell Prolif. 120 hr YMin (%)” value stood at 1.7%. Moreover, in the experiment on MKN45 cells, the “MKN45 Cell Prolif. 120 hr YMin (%)” value is given as 6.8%. In addition, at WEE1, the “293T-LentiX WEE1-ePL Degradation 4 hr YMin (%)” value is recorded as 23.6%.
Turning to `O=C1CC[C@H](N2Cc3cc(O[C@H]4CCN(Cc5cc(F)c6nc(N7C[C@H]8CCO[C@H]8C7)ccc6c5)C4)ccc3C2=O)C(=O)N1` (single isomer, unassigned) [Example 7, (S)-3-(5-(((S)-1-((8-fluoro-2-((3aR*,6aR*)-hexahydro-5H-furo[2,3-c]pyrrol-5-yl)quinolin-6-yl)methyl)pyrrolidin-3-yl)oxy)-1-oxoisoindolin-2-yl)piperidine-2,6-dione], the EC50 in the experiment on MDA-MB-231 cells (setting [1]) was determined as 74 nM. Also, the “MDA-MB 231 Cell Prolif. 120 hr YMin (%)” value in the experiment with MDA-MB-231 cells stood at 64.0%. Further, in the experiment with MKN45 cells (Homo sapiens, MKN-45, 120 h), the EC50 stood at 5 nM. Besides, the “MKN45 Cell Prolif. 120 hr YMin (%)” value with MKN45 cells was found to be 13.7%. At WEE1, the DC50 amounted to 1 nM and the “293T-LentiX WEE1-ePL Degradation 4 hr YMin (%)” value is 31.9%.
On to `COC[C@@H]1CN(Cc2cc(F)c3ncc(C4CCOCC4)cc3c2)C[C@H]1Oc1ccc2c(c1)CN([C@H]1CCC(=O)NC1=O)C2=O` [Example 109, (3S)-3-(5-{[(3S,4S)-1-{[8-fluoro-3-(oxan-4-yl)quinolin-6-yl]methyl}-4-(methoxymethyl)pyrrolidin-3-yl]oxy}-1-oxo-2,3-dihydro-1H-isoindol-2-yl)piperidine-2,6-dione], for which the EC50 with MDA-MB-231 cells (setting [1]) is 16 nM; in the experiment with MKN45 cells (Homo sapiens, MKN-45, 120 h), 1 nM. Besides, the “MDA-MB 231 Cell Prolif. 120 hr YMin (%)” value in the experiment on MDA-MB-231 cells is given as 37.3%. In addition, the “MKN45 Cell Prolif. 120 hr YMin (%)” value in the experiment on MKN45 cells worked out at 8.7%. Further, the “293T-LentiX WEE1-ePL Degradation 4 hr YMin (%)” value on WEE1 turned out to be 27.5%.
As to `O=C1CCC(N2C(=O)c3ccc(O[C@H]4CCN(Cc5ccc6nc(N7CCOCC7)ncc6c5)C4)cc3C2=O)C(=O)N1` (single isomer, unassigned) [Example 27, 2-((R*)-2,6-dioxopiperidin-3-yl)-5-(((S)-1-((2-morpholino-quinazolin-6-yl)methyl)pyrrolidin-3-yl)oxy)isoindoline-1,3-dione], in the experiment with MDA-MB-231 cells, the “MDA-MB 231 Cell Prolif. 120 hr YMin (%)” value is on record as 81.8% and the EC50 stood at 2990 nM. Moreover, in the experiment on MKN45 cells, the “MKN45 Cell Prolif. 120 hr YMin (%)” value amounted to 29.1% and the concentration for a half-maximal effect (EC50) came out at 205 nM.
